Measurements as given in patent US6475993B2 (Universite Laval, priority 1998, dated 2002).

Key:
[1] = tested on: dystrophin; experiment: Dystrophin immunohistochemistry in skeletal muscle and heart of mdx mice treated with gentamicin; format: in vivo; details: for Dystrophin staining intensity: 7 days
Method: All mice were then sacrificed, their skeletal muscle and their heart were frozen and cryostat sectioned. The presence of dystrophin in these sections was investigated by immunohistochemistry. […] In the untreated mdx muscles, dystrophin immunostaining was observed only in a few revertant fibers (Hoffman et al. 1990). […] The dystrophin staining was less intense in the muscles of mice treated with 1 mg/kg. […] The duration of treatment may vary.

[2] = tested on: mdx mice; experiment: Toxicity signs in mdx mice treated with gentamicin; format: in vivo
Source text: Further, any mean by which gentamicin or gentamicin-like or derived molecules can be driven more directly to the site of action is within the scope of this invention.

[3] = tested on: CFTR protein; details: gentamicin 200 mg/mL (so in the source), incubation 18 to 24 hours; Howard et al. 1996; cited from earlier work

gentamicin
Success of daily treatments of other route or duration ([1]; Sub-cutaneous or intra-muscular daily treatments of 7 to 14 days or longer): equivalently successful | Dystrophin staining intensity ([1]; mdx mice, I.M. 5 mg/day gentamicin, some muscles): as intense as that observed in the normal mouse muscles | Presence of dystrophin by immunohistochemistry ([1]; mdx mice, I.M. gentamicin 1 mg/day or 5 mg/day during 7 days, skeletal muscle and heart cryostat sections): detected by immunohistochemistry on all muscle fibers and all heart muscle cells | Dystrophin staining intensity ([1]; mdx mice, I.M. gentamicin, printed 1 mg/kg): less intense | Suppression of premature stop codon in vivo ([1]; mdx mice, dose of 8 to 40 mg per Kg of body weight per day): successfully suppressed the premature stop codon | Toxicity signs [2]: No toxicity signs appeared | Suppression of premature stop mutation in CFTR gene (full-length CFTR protein) [3]: permitted to suppress the premature stop mutation
